These are literature values, as cited in publication PMC10468453, “First-in-human study of a novel cell death tracer [^99mTc]Tc-Duramycin: safety, biodistribution and radiation dosimetry in healthy volunteers” (EJNMMI Radiopharmacy and Chemistry, 2023).

The conditions of the data set: humans; ref Challapalli et al. [2013]; Doss et al. [2013]; Hoglund et al. [2011]; Kemerink et al. [2003]; Quinn et al. [2016]. From the text:
We determined the mean effective dose of [^99mTc]Tc-Duramycin as 7.6 µSv/MBq, corresponding to a total effective dose of 3.60 mSv for a patient dose of 473 MBq.
With `O=C[C@H]([18F])[C@@H](O)[C@H](O)[C@H](O)CO` [[^18F]FDG, 2-[^18F]fluoro-2-deoxy-D-glucose], the Effective dose was 9.0 mSv. As for `O=C1C(=O)N(Cc2cn(CC[18F])nn2)c2ccc(S(=O)(=O)N3CCCC3COc3ccc(F)cc3F)cc21` (stereo not drawn) [[^18F]ICMT-11], the Effective dose was 12.5 mSv. Take “[^99mTc]HYNIC-annexin V: radiolabeled annexin V, a phosphatidylserine-binding protein”: the Effective dose is 5.5 mSv.
